From US20210228500A1, “CELLULAR RETINOID BINDING PROTEIN ANTAGONISTS AND USES THEREOF” (CASE WESTERN RESRVE UNIVERSITY, priority 2018, published 2021)
Entries after “also recorded” stand apart in the source; their conditions may differ.

Tests used:
cannabinoid receptor 2 = cannabinoid receptor 2 (Homo sapiens, UniProt P34972); conditions: cited from earlier work
RPE65 = target: T1, RPE65 (Bos taurus, UniProt Q28175); assay: RPE65 isomerization activity assay; assay type: biochemical; conditions: bovine RPE microsomes preincubated with 10-50 μM
T1 construct: from tissue; host or cells: bovine RPE microsomes
T1 sequence (Q28175 whole entry): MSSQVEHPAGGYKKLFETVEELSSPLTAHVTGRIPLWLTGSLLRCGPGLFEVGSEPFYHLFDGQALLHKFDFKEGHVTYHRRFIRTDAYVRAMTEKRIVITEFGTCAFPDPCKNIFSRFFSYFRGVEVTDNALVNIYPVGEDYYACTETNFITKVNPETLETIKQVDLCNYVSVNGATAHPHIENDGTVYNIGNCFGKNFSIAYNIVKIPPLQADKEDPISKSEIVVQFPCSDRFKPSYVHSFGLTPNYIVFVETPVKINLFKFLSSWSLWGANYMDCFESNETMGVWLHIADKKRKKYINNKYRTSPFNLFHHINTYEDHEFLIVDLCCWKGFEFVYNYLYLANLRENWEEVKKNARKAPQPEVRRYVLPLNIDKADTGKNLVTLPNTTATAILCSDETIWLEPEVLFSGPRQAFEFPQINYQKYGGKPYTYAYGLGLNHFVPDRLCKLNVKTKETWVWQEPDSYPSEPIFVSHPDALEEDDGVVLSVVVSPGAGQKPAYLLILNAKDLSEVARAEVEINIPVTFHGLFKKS
Experimental: For the retinoid isomerization assay, UV-bleached RPE microsomes isolated from bovine eyes served as a source of robust RPE65 enzymatic activity. The isomerization reaction was performed in the presence of cellular retinaldehyde-binding protein (CRALBP) according to an established methodology published previously. The enzymatic reaction was initiated by addition of atROL the final concentration of 10 μM. After incubation at 30° C. for 30 min, the reaction products were extracted with hexane and analyzed by HPLC as described above.
Thus, to further probe the biological effect of this compound, we tested its effect on the key enzymes of the visual cycle. For this purpose, microsomes isolated from bovine RPE cells were preincubated with 10-50 μM of abn-CBD (1:1 to 1:5 molar excess of cannabinoid) prior to the initiation of the esterification, isomerization, or oxidation reactions by addition of an adequate retinoid substrate.

CRBP2 = target: T2, CRBP2 (Homo sapiens, UniProt P50120); assay: Fluorescence-binding assay with CRBP2
T2 construct: 6x histidine tag (C, cleaved yes); thrombin cut site (residual residues after digestion) (C); made in house; host or cells: E. coli BL21 (DE3)
T2 sequence (P50120 1-134): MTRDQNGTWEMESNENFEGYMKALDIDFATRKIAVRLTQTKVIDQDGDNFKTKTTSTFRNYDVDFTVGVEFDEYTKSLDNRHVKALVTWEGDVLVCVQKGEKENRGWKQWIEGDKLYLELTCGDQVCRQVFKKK

cannabinoid receptor 1 = cannabinoid receptor 1 (Homo sapiens, UniProt P21554); conditions: cited from earlier work
Chain of cannabinoid receptor 1 (P21554 whole entry, species assumed): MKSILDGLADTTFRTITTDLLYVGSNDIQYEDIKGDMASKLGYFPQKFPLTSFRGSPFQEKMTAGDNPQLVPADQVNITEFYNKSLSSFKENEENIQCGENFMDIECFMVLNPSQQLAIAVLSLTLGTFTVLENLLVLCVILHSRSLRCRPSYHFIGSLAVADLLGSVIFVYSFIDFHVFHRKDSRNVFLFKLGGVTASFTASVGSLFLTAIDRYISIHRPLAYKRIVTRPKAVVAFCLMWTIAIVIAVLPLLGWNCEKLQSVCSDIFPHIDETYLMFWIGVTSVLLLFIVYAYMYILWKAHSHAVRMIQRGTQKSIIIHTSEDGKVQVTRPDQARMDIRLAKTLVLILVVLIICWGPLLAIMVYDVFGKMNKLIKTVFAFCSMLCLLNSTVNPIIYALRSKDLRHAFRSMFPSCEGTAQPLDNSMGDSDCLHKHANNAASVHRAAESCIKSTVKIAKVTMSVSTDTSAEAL

CRBP3 = target: T3, CRBP3 (Homo sapiens, UniProt P82980); assay: Crystal structure of CRBP3 in complex with abn-CBD; assay type: binding; conditions: crystal structure PDB No. 6E5W
T3 construct: thrombin cut site (residual residues after digestion) (C); 6x histidine tag (C, cleaved yes); made in house; host or cells: E. coli BL21 (DE3) (as for CRBP2)
T3 sequence (P82980 1-135): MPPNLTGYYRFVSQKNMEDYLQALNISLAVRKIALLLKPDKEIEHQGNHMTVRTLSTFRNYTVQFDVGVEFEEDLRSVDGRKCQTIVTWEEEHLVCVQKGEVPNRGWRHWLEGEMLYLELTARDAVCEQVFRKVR
Experimental: The cDNA of human CRBP3 was purchased from Origene Technologies. To introduce a thrombin cut site at the C-terminus of the protein, the cDNA was amplified by PCR and subcloned into pET30b vector. The next steps of the expression and purification of CRBP3 were identical to the procedure described above for CRBP2.
Crystals of CRBP1 in complex abn-CBD and its derivatives (abn-CBDO or CBDO) were grown essentially as described by Silvaroli et al (ACS Chem Biol. 2019, 15; 14(3)). The apo protein at 3 mg mL-1 was preincubated with 300 μM of a ligand in 10 mM Tris-HCl buffer, pH 8.0, 150 mM NaCl for 15 min on ice. This sample (1 μL) was mixed in 1:1 ratio with a crystallization solution composed of 0.1 M BisTris, pH 5.5, and 25% poly(ethylene glycol) (PEG) 3350 (w/v). Crystals of CRBP3 with abn-CBD were obtained by preincubating apoprotein at 8 mg mL-1 with 300 μM of the ligand for 15 min and setting up crystallization drops by mixing 1 μL of the protein sample with 1 μL of 0.2 M sodium malonate, pH 5.0 and 20% PEG 3350 (w/v) solution. For CRBP4, the crystallization conditions included 0.2 M NaCl, 0.1 M BisTris, pH 6.5, and 25% PEG 3350 (w/v). Similar to the other CRBPs, CRBP4 (6 mg mL^−1) was preincubated with abn-CBD prior to the crystallization. All of the protein crystals were obtained by the sitting drop vapor diffusion method at RT. […]

Balb/cJ mice = assay: Electroretinography (ERG) after photobleach; assay type: in vivo; conditions: 30 mg kg^−1; scotopic ERG 4 h after flash of light
Experimental: Before the ERG recording, dark-adapted Balb/cJ mice were anesthetized with 20 mg mL^−1 ketamine and 1.75 mg mL^−1 xylazine in PBS at a dose of 0.1-0.13 mL per 25 g of body weight, and pupils were dilated with 1% tropicamide. Contact lens electrodes were placed on the eyes, and a reference electrode was positioned between two ears, while ground electrode was placed on the tail. Scotopic ERGs were recorded for both eyes of each mouse using a UTAS E-3000 universal testing and ERG system (LKC Technologies).
To quantify the effect of the CRBP1 inhibitor on the recovery of visual sensitivity after a light stimulus, we measured full-field electroretinography (ERG) responses in mice. Prior to the illumination, the animals were either treated with DMSO (vehicle) or abn-CBD. Both drugs were administrated in a dose of 30 mg kg^−1. Scotopic ERG responses at varying light intensities were recorded 4 h after the exposure to a flash of light that photobleached ˜50% of the visual pigment. […] However, even in a relatively high dose used in this experiment, the inhibitor of CRBP1 had much smaller impact on the visual cycle without causing its blockage, as it was reported for retinylamine and emixustat.

Chain of cannabinoid receptor 2 (P34972 whole entry): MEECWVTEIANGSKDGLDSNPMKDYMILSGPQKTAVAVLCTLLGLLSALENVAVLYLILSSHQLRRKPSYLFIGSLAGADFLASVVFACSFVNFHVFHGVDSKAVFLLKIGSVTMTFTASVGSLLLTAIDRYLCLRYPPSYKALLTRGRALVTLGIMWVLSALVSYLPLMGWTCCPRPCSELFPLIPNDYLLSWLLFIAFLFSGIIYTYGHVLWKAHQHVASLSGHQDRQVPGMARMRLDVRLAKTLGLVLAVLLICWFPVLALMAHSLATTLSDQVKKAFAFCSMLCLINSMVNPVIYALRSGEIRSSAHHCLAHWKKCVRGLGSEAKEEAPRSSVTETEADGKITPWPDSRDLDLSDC

## C=C(C)[C@@H]1CCC(C)=C[C@H]1c1c(O)cc(O)cc1CCCCC [abn-CBD, 4-[(1R,6R)-3-Methyl-6-prop-1-en-2-ylcyclohex-2-en-1-yl]-5-pentylbenzene-1,3-diol]
Cannabinoid receptor 2
  interaction with cannabinoid receptor 2: does not interact
RPE65
  effect on enzymatic activity of RPE65: did not cause a measurable decline
CRBP2
  interaction with CRBP2: does not interact; also recorded: absence of interaction
Cannabinoid receptor 1
  interaction with cannabinoid receptor 1: does not interact
CRBP3
  binding to CRBP3: bind abn-CBD similarly to CRBP1
Balb/cJ mice
  recovery of a-wave and b-wave amplitudes (dark adaptation): slower; also recorded: slight delay in the dark adaptation
